Reference: patent US4149007A, “C14 Phenyl-substituted derivatives of prostaglandin analogues” (Miles Laboratories, Inc., priority 1977, dated 1979)

Legend:
[1] = system: motor pathways in the central nervous system; conditions: cited from earlier work
[2] = system: female reproductive system; conditions: cited from earlier work; for labor / abortion effect: inducing labor, early pregnancy
[3] = system: tracheal smooth muscle; conditions: in vitro, most mammalian respiratory tracts; cited from earlier work
[4] = system: adrenal glands; conditions: hypophysectomized rats; cited from earlier work
[5] = system: growth hormone; conditions: rats; cited from earlier work
[6] = system: rat uterus; assay: Effects on the rat uterus in vitro; assay type: cell-based; conditions: dose producing response 50% that of carbachol
Protocol: (B) effect on the rat uterus in vitro;
The uterine stimulant effect of test compounds was determined in segments of uterus obtained from rats (140-160 g) pretreated subcutaneously with 1 mg/kg of diethylstilbesterol 18 hours before the experiment. The tissues were placed in 10 ml chambers filled with de-Jalon solution at 29° C., were aerated and bubbled with 95% O2 and 5% CO2, and were prepared for isometric recording with force displacement transducers. Preparations were stretched to an initial tension of 1 g and were left undisturbed for 30 minutes. Carbachol (1 mcg/ml) was then added to the bath and a response was recorded. After a ten minute interval the carbachol procedure was repeated. Responses to increasing concentrations of a test compound (0.001 to 10 mcg/ml with one log intervals) were then recorded every 10 minutes. Preparations were washed four times after each response. All doses of compounds were administered in a 0.1 ml volume. Because it has been observed that the magnitude of the second response to carbachol (approximately 10% greater than the first) is close to the maximal response of the tissue, such value was taken as a measure of the sensitivity of a particular segment. Responses to each concentration of the test compound were expressed in terms of percentage of the second response to carbachol and the ED50 (dose producing a response 50% that of carbachol) was calculated graphically.
Activity was scored according to the following scale: […]

[7] = system: rat colon; assay: Cascade assay: rat colon; assay type: cell-based; conditions: in vitro, smooth muscle stimulant ED50 scored
Protocol: (§1) (A) effects on the rat stomach, rat colon, chick rectum, and rabbit aorta in vitro (cascade assay);
(§2) The smooth muscle stimulant effects of test compounds were determined simultaneously in four different tissues that are known to be reactive to naturally occurring prostaglandins. Segments of rat stomach fundus, rat colon, chick rectum and rabbit aortic strip were obtained as described by: Vane, J. R., Brit. J. Pharmacol., 12: 344 (1957); Regoli, D. and Vane, J. R., Brit. J. Pharmacol., 23: 351 (1964); Mann, M. and West, G. B., Brit. J. Pharmacol., 5: 173 (1950); and Furchgott, R. F. and Bhadrakom, R., J. Pharmacol. Exper. Ther., 108: 129 (1953). One end of each preparation was tied to the bottom of a 10 ml tissue chamber and the other to a force displacement transducer (Grass FT-03) for continuous tension recording. The stomach, colon, and rectum segments were stretched to an initial tension of 1 g, while the aortic strip was subjected to 4 g. All preparations were left undisturbed for 1 hour prior to testing. […]
(§3) Test compounds were diluted from stock solutions so as to administer quantities ranging from 0.0001 to 100,000 ng in a volume of 0.5 ml. […] Maximal increases in tension after each dose were measured and the results were used to plot dose-response curves. […]
(§4) Activity in each tissue was scored according to the following scale: […]

[8] = system: rat stomach fundus; assay: Cascade assay: rat stomach fundus; assay type: cell-based; conditions: in vitro, smooth muscle stimulant ED50 scored
Protocol: as §1, §2, §3, §4

[9] = system: chick rectum; assay: Cascade assay: chick rectum; assay type: cell-based; conditions: in vitro, smooth muscle stimulant ED50 scored
Protocol: as §1, §2, §3, §4

[10] = system: rabbit aortic strip; assay: Cascade assay: rabbit aortic strip; assay type: cell-based; conditions: in vitro, smooth muscle stimulant ED50 scored
Protocol: as §1, §2, §3, §4

[11] = system: human platelet; assay: Inhibition of human platelet aggregation in vitro; assay type: cell-based; conditions: human platelet rich plasma, collagen-induced
Protocol: (E) effect on human platelet aggregation in vitro; and
The ability of test compounds to inhibit platelet aggregation was determined by a modification of the turbidometric technique of Born, G. V. R. (Nature, 194: 927 [1962]). Blood was collected from human volunteers, who had not ingested aspirin or aspirin-containing products within the preceding two weeks, in heparinized containers and was allowed to settle for one (1) hour. The platelet rich plasma (prp) supernates were collected and pooled. Siliconized glassware was used throughout.
In a representative assay, 1.9 ml of PRP and 0.2 ml of test compound at the appropriate concentration ([…]), or 0.2 ml of distilled water (control procedure) were placed in sample cuvettes. The cuvettes were placed in a 37° C. incubation block for 15 minutes, and then in a spectrophotometer linked to a strip chart recorder. After 30-60 seconds, 0.2 ml of a solution, prepared by diluting a calf-skin collagen solution 1:9 with Tyrodes' Solution, was added to each cuvette. Platelet aggregation was evidenced by a decrease in optical density.
An ED50 value was then determined graphically.

[12] = system: rat; assay: Effects on gastric secretion in the rat; assay type: in vivo; conditions: pylorus ligated, 1.5 mg/kg s.c. twice (total 3.0 mg/kg), 4 hours
Protocol: (F) effect on gastric secretion in the rat;
A procedure based on that described by Lipman, W. (J. Pharm. Pharmacol., 21: 335 [1968]) was used to assess the influence of test compounds on gastric secretion. Rats of one sex weighing 150 to 200 g were randomly divided into groups of six animals each and fasted for 48 hours previous to the experiments, water being available ad libitum. The animals were anesthetized with ether, the abdomen opened through a midline incision, and the pylorus ligated. Test compounds were diluted from stock solution so as to administer a dose of 1.5 mg/kg in a volume equivalent to 1 ml/kg. Subcutaneous injections were applied immediately after surgery and again 2 hours later, so that a total dose of 3.0 mg/kg was administered. Dilutions were made with phosphate buffer (pH 7.38) as recommended by Lee et al. (Prostaglandins, 3: 29 [1973]) in order to insure adequate stability of drugs at the subcutaneous depot. […]
Four hours after pyllric ligation the animals were killed with ether, the cardias ligated, and the stomachs removed. The volume of gastric secretion was measured and the contents centrifuged at 5000 rpm for 10 minutes. […]
Volume and total acid values of the treated group were compared with those of the controls […]. Antisecretory activity was scored according to the following scale: […]

CCCCC[C@H](O)/C=C/[C@@H]1[C@@H](C/C=C\CCCC(=O)O)[C@@H](O)C[C@H]1O [PGF2α]
transmission along motor pathways in the central nervous system [1]: facilitates transmission along motor pathways in the central nervous system | fertility / gestation effect ([2]; female reproductive system): has contragestational effects | labor / abortion effect [2]: induces spontaneous abortions in early pregnancy | effect on tracheal smooth muscle [3]: contracts such smooth muscle

CCCCC[C@H](O)/C=C/[C@H]1[C@H](O)CC(=O)[C@@H]1C/C=C\CCCC(=O)O [PGE2]
labor / abortion effect [2]: produces potent oxytocic effects in inducing labor | steroidogenesis in the adrenal glands [4]: stimulate stereoidogenesis in the adrenal glands | effect on tracheal smooth muscle [3]: relax | release of the growth hormone [5]: increase the release of the growth hormone

CCCCC[C@H](O)/C(=C/C1CCC(=O)C1C/C=C\CCCC(=O)OC)c1ccccc1 (mixture of isomers) [Example 9, Methyl dl-14-phenyl-15S-hydroxy-9-oxoprosta-5Z,13E-dien-1-oate]
Rat Uterus: activity value (ED50) [6]: 0 (>10)

CCCCC[C@@H](O)/C(=C/C1CCC(=O)C1C/C=C\CCCC(=O)OC)c1ccccc1 (mixture of isomers) [Example 8, Methyl dl-14-phenyl-15R-hydroxy-9-oxoprosta-5,13E-dien-1-oate]
Rat Uterus: activity value (ED50) [6]: 0 (>10)

CCCCC[C@H](O)/C(=C/[C@H]1[C@H](O)CC(=O)[C@@H]1CCCCCCC(=O)O)c1ccccc1 [Example 2, 14-Phenyl-11α,15S-dihydroxy-9-oxoprost-13E-en-1-oic acid]
Rat Uterus: activity value (ED50) [6]: 0 (>10)

CCCCCC(O)/C(=C/[C@@H]1[C@@H](C/C=C\CCCC(=O)O)[C@@H](O)C[C@H]1O)c1ccccc1 (stereo partly drawn) [Example 14, 14-Phenyl-9α,11α,15R,S-trihydroxyprosta-5Z,13E-dien-1-oic acid]
Rat Uterus: activity value (ED50) [6]: 0 (>10)

CCCCC[C@H](O)/C(=C/[C@H]1[C@H](O)CC(=O)[C@@H]1C/C=C\CCCC(=O)OCC)c1ccccc1 [Example 7B, Ethyl-14-Phenyl-11α,15S-dihydroxy-9-oxoprosta-5Z-13E-dien-1-oate]
Rat Uterus: activity value (ED50) [6]: 0 (>10)

CCCCC[C@@H](O)/C(=C/[C@H]1[C@H](O)CC(=O)[C@@H]1CCCCCCC(=O)O)c1ccccc1 [Example 3, 14-phenyl-11α,15R-dihydroxy-9-oxoprost-13E-en-1-oic acid]
Rat Uterus: activity value (ED50) [6]: 0 (>10)

CCCCC[C@@H](O)/C(=C/C1C=CC(=O)C1CCCCCCC(=O)O)c1ccccc1 (stereo partly drawn) [Example 12, 14-Phenyl-15R-hydroxy-9-oxo-ent-prosta-10,13E-dien-1-oic acid]
Cascade, Colon: activity value (ED50) [7]: 0 (>10000) | Cascade, Stomache: activity value (ED50) [8]: 0 (>10000) | Cascade, Rectum: activity value (ED50) [9]: 0 (>10000) | Cascade, Aorta: activity value (ED50) [10]: 0 (>10000) | Platelet Aggregation: activity value (ED50) [11]: 1 (>0.1 and ≤1.0) | Gastric Secretion: activity value (% decrease in acidity) [12]: 0 (<26) | Rat Uterus: activity value (ED50) [6]: 0 (>10)

CCCCC[C@@H](O)/C(=C/C1CCC(=O)C1C/C=C\CCCC(=O)O)c1ccccc1 (mixture of isomers) [Example 11, dl-14-Phenyl-15R-hydroxy-9-oxoprosta-5Z-13E-dien-1-oic acid]
Rat Uterus: activity value (ED50) [6]: 0 (>10)

CCCCC[C@H](O)/C(=C/C1CCC(=O)C1C/C=C\CCCC(=O)O)c1ccccc1 (mixture of isomers) [Example 10, dl-14-Phenyl-15S-hydroxy-9-oxoprosta-5Z,13E-dien-1-oic acid]
Rat Uterus: activity value (ED50) [6]: 0 (>10)

CCCCCC(O)/C(=C/C1CCC(=O)C1CCCCCCC(=O)OC)c1ccccc1 (racemic) [Example 5, Methyl dl-14-phenyl-15R,S-hydroxy-9-oxoprost-13E-en-1-oate]
Rat Uterus: activity value (ED50) [6]: 0 (>10)
